Values after ≈ are worked out from the molar mass of the structure shown. Active and inactive are the calls of the source. The calls are words filed in the database; no cut-off is given here.

Data on two compounds can be found in ChEMBL document CHEMBL3217627, “Designing glucokinase activators with reduced hypoglycemia risk: discovery of N,N-dimethyl-5-(2-methyl-6-((5-methylpyrazin-2-yl)-carbamoyl)benzofuran-4-yloxy)pyrimidine-2-carboxamide as a clinical candidate for the treatment of type 2 diabetes mellitus” (Medchemcomm, 2011).

Data set [1] deals with Rattus norvegicus. Briefly: Antidiabetic activity in po dosed Sprague-Dawley rat assessed as reduction of post-prandial glucose excursion administered for 60 mins followed by glucose challenge measured up to 120 mins by OGTT. The data set is classed as functional, organism-based.
Data set [2] in a line: Drug excretion in bile duct-cannulated rat bile assessed as parent compound level at 5 mg/kg, iv. On the set-up: dose 5 mg/kg, route intravenous. The following applies: read-out: Drug excretion. It is filed as ADME, organism-based.
Data set [3] in a line: Half life in cynomolgus monkey at 0.5 mg/kg, iv and 3 mg/kg, po. The data set is classed as ADME, organism-based, Macaca fascicularis. The note with it: in vivo.
Data set [4] in a line: Half life in Beagle dog at 0.5 mg/kg, iv and 5 mg/kg, po. The data set is classed as ADME, organism-based, Canis lupus familiaris. The note with it: in vivo.
Data set [5] is described as follows: Intrinsic clearance in human liver microsomes. The note with it: read-out: CLH. It is filed as ADME. Background: Microsomes from liver hold many membrane-bound enzymes, among them those of drug oxidation.
Data set [6] deals with Pancreatic islet. Briefly: Induction of 9 to 13 mM glucose-induced insulin secretion in rat dispersed pancreatic islet static culture at 0.4 to 12 uM. The data set is classed as functional.
Data set [7] can be described thus: Oral bioavailability in Beagle dog at 5 mg/kg. The note with it: in vivo. The data set is classed as ADME, organism-based, Canis lupus familiaris.
In data set [8] the test system is Pancreatic islet. Briefly: Induction of > 22 mM glucose-induced insulin secretion in rat dispersed pancreatic islet static culture at 0.4 to 12 uM. It is filed as functional.
The nature of data set [9]: Oral bioavailability in cynomolgus monkey at 3 mg/kg. It is filed as ADME, organism-based, Macaca fascicularis. The note with it: in vivo.
Data set [10] can be described thus: Clearance in Beagle dog at 0.5 mg/kg, iv and 5 mg/kg, po. It is filed as ADME, organism-based, Canis lupus familiaris. The following applies: in vivo.
A short description of data set [11]: Kinetic solubility of the compound. The data set is classed as physicochemical. The note with it: read-out: Kinetic_solubility.
Data set [12] is described as follows: Oral bioavailability in female Sprague-Dawley rat at 1 mg/kg. It is filed as ADME, organism-based. The note with it: in vivo.
Data set [13] can be described thus: Volume of distribution at steady state in Beagle dog at 0.5 mg/kg, iv and 5 mg/kg, po. It is filed as ADME, organism-based, Canis lupus familiaris. The following applies: in vivo, read-out: Vdss.
Data set [14] is described as follows: Volume of distribution at steady state in cynomolgus monkey at 0.5 mg/kg, iv and 3 mg/kg, po. The data set is classed as ADME, organism-based, Macaca fascicularis. The following applies: in vivo, read-out: Vdss.
Data set [15] is described as follows: Oral bioavailability in male Sprague-Dawley rat at 1 mg/kg. The data set is classed as ADME, organism-based. The note with it: in vivo.
The subject of data set [16] is Rattus norvegicus. Briefly: Volume of distribution at steady state in female Sprague-Dawley rat at 1 mg/kg, iv and po. It is filed as ADME, organism-based. On the set-up: dose 1 mg/kg, route oral. The following applies: in vivo.
The nature of data set [17]: Drug excretion in Sprague-Dawley rat urine assessed as parent compound level at 1 mg/kg, iv. It is filed as ADME, organism-based. Also noted: dose 1 mg/kg, route intravenous. The note with it: read-out: Drug excretion.
Data set [18] relates to Pancreatic islet. The data set is described as follows: Induction of 3 to 5 mM glucose-induced insulin secretion in rat dispersed pancreatic islet static culture at 4 to 12 uM. It is filed as functional.
A short description of data set [19]: Half life in female Sprague-Dawley rat at 1 mg/kg, iv and po. The data set is classed as ADME, organism-based. On the set-up: dose 1 mg/kg, route oral. The following applies: in vivo.
Data set [20] can be described thus: Half life in male Sprague-Dawley rat at 1 mg/kg, iv and po. The data set is classed as ADME, organism-based. On the set-up: dose 1 mg/kg, route oral. The following applies: in vivo.
A short description of data set [21]: Clearance in cynomolgus monkey at 0.5 mg/kg, iv and 3 mg/kg, po. The data set is classed as ADME, organism-based, Macaca fascicularis. The note with it: in vivo.
In data set [22] the test system is Rattus norvegicus. Briefly: Volume of distribution at steady state in male Sprague-Dawley rat at 1 mg/kg, iv and po. The note with it: in vivo. On the set-up: dose 1 mg/kg, route oral. It is filed as ADME, organism-based.
The test system of data set [23] is Pancreatic islet. Briefly: Induction of 3 to 5 mM glucose-induced insulin secretion in rat dispersed pancreatic islet static culture at 0.4 to 1.2 uM. It is filed as functional.
A short description of data set [24]: Selectivity ratio of EC50 for rat glucokinase to EC50 for human glucokinase.
Data set [25] deals with Rattus norvegicus. Briefly: Toxicity in Sprague-Dawley rat assessed as hypoglycemic level at 30 to 100 mg/kg, po administered for 60 mins measured over first hour prior to OGTT. The data set is classed as organism-based. Also noted: dose 30-100 mg/kg, route oral. The note with it: in vivo, 1 h.
Data set [26] deals with T1, Hexokinase-4 (Homo sapiens, UniProt P35557).
T1 sequence (P35557 whole entry): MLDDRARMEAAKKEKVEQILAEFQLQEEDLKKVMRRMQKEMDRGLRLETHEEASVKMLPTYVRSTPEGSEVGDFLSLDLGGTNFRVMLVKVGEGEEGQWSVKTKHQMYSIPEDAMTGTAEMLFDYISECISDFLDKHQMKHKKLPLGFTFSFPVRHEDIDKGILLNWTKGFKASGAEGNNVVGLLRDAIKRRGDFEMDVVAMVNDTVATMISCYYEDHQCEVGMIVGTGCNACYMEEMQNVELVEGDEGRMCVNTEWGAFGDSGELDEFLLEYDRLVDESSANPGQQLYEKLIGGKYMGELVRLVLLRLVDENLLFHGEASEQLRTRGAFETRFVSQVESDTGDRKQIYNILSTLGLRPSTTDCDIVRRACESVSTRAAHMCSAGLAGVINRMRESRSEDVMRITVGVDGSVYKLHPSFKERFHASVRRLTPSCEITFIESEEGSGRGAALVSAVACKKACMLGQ
Description: Activation of recombinant human glucokinase assessed as formation of glucose-6-phosphate by G6PDH/NADP coupled assay

The subject of data set [27] is Rattus norvegicus. Briefly: Toxicity in po dosed Sprague-Dawley rat assessed as reduction in fasting plasma glucose level administered for 60 mins measured over first hour prior to OGTT. It is filed as organism-based. The note with it: in vivo, 1 h.
Data set [28] deals with T2, Hexokinase-4 (Rattus norvegicus, UniProt P17712).
T2 sequence (P17712 whole entry): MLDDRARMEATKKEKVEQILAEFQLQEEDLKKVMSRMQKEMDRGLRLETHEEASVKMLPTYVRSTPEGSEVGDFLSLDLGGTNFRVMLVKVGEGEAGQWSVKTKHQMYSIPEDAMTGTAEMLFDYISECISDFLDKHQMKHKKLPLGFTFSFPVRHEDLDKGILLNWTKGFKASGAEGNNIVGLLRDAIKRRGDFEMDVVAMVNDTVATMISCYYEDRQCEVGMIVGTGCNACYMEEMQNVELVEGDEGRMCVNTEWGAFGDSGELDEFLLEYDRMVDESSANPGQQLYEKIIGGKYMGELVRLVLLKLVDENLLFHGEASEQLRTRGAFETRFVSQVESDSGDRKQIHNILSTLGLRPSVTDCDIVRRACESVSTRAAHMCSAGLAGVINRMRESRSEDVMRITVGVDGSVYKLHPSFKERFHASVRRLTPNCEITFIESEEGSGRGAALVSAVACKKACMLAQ
Briefly: Activation of rat glucokinase.

In general, half-life refers to the time in which the quantity being followed falls by half. By bioavailability is commonly meant the share of a dose that reaches the circulation, judged against a reference dose that is usually intravenous. As for `Cc1cnc(NC(=O)c2cc(Oc3cnc(C(=O)N(C)C)nc3)c3cc(C)oc3c2)cn1` [NERIGLIATIN], the Activity result in the data set with Rattus norvegicus [1] is “Dose-dependent effect”. Moreover, the dose excreted in [2] was 2.3%; in [17], 0.26%. For the same compound, the half-life in [3] was 1.8 h; in data set [4], 3.3 h; in data set [19], 1.2 h; in data set [20] it was 4.3 h. For the same compound, the CLint scaled in data set [5] was under 0.48 L/h/kg. Moreover, the outcome in the data set with Pancreatic islet [6] and in the data set on Pancreatic islet [18] was Active. In addition, the bioavailability worked out at 12% in data set [7], 78% in data set [9], 77% in data set [12] and 23% in data set [15]. The result in the data set on Pancreatic islet [8] and with Pancreatic islet [23] was inactive. Moreover, the clearance in data set [10] was found to be 0.156 L/h/kg; in [21], 0.564 L/h/kg. Moreover, the solubility kinetic in [11] is 463 µM (≈ 200 µg/mL). The Vd in data set [13] was 0.65 L/kg; in data set [14], 0.83 L/kg. The figures for the Vdss in the data set on Rattus norvegicus [16] and in the data set with Rattus norvegicus [22] were 1.1 L/kg and 2.1 L/kg, respectively.

As a reminder, the EC50 is the concentration needed to bring the measured effect to its halfway point. Take `Cn1ccc(NC(=O)c2cc(Oc3ccc(C(=O)N4CCC4)c(F)c3)c3c(c2)OC(C)(C)C3)n1`: the figures for the Activity result in the data set on Rattus norvegicus [1], with Rattus norvegicus [25] and in the data set with Rattus norvegicus [27] were “Dose-dependent effect”, under 60 mg/dL and “Dose-dependent effect”, respectively. For the same compound, in [24], the Ratio EC50 is under 4. The EC50 stood at 0.027 µM at Hexokinase-4 [26] and 0.05 µM at Hexokinase-4 [28].
